Measured values: patent US20060223763A1, “C-glycoside compounds for stimulating the synthesis of glycosaminoglycans” (L'OREAL S.A., priority 2000, published 2006)
Several values for one entry are separate records, joined by “and”; a condition that tells them apart may be missing. Equal values may be shown once.

Test system: normal human dermal fibroblast cultures
Assay: incorporation of radioactive glucosamine into the matrix neosynthesized by fibroblast cultures (GAG/hyaluronic acid synthesis)
Format: cell-based
Procedure: The study was performed by measuring the incorporation of radioactive glucosamine into the matrix neosynthesized by normal human dermal fibroblast cultures. The incorporation of radioactive glucosamine indicated a specific neosynthesis of glycosaminoglycans via incorporation of the acetylated form of this glucosamine.
The fibroblast cultures were prepared according to the standard methods of cell culturing, i.e., in MEM/M199 medium sold by Gibco, in the presence of sodium bicarbonate (1.87 mg/ml), L-glutamine (2 mM), penicillin (50 IU/ml) and 10% foetal calf serum (Gibco).
The test was performed on a cell culture at 80% confluence, on 96-well plates. The C-glycoside derivative at concentrations of 0.1 to 30 mM was placed in contact with the cells for 48 hours. Labeling with radioactive glucosamine (D-[6-H^3]-glucosamine, Amersham TRK398 (814 Gbq/mmol, 22 Ci/mmol)) was performed for 24 hours.
The level of radioactive glucosamine incorporated was measured at the end of the test by adsorption of the anionic molecules onto Q-sepharose beads followed by desorption of the sparingly and moderately anionic molecules with 6M urea plus 0.2M NaCl. Once washed, the radioactivity incorporated into the highly cationic molecules remaining on the support was counted.
The results were evaluated relative to a control consisting of cells that have not been treated with the C-glycoside derivative of formula (I).
A positive control (TGFβ at 10 ng/ml) known to stimulate GAG synthesis was introduced into the test as positive reference.

[1] = 0.1 mM, 48 hours contact, labeling 24 hours
[2] = 0.3 mM, 48 hours contact, labeling 24 hours
[3] = 1 mM, 48 hours contact, labeling 24 hours
[4] = concentrations of 0.3, 1 and 3 mM
[5] = 0.5 mM, 48 hours contact, labeling 24 hours
[6] = 3 mM, 48 hours contact, labeling 24 hours
[7] = TGFβ at 10 ng/ml, positive control, two values given
[8] = 0.4 mM, 48 hours contact, labeling 24 hours
[9] = 2 mM, 48 hours contact, labeling 24 hours
[10] = 10 mM, 48 hours contact, labeling 24 hours

| Compound | % (relative to untreated control) [1] [%] | VALUE (radioactive glucosamine incorporated) [1] [cpm] | % (relative to untreated control) [2] [%] | VALUE (radioactive glucosamine incorporated) [2] [cpm] | % (relative to untreated control) [3] [%] | VALUE (radioactive glucosamine incorporated) [3] [cpm] | effect on incorporation of radioactive glucosamine [4] | further results |
| --- | --- | --- | --- | --- | --- | --- | --- | --- |
| CC(C[C@@H]1OC[C@@H](O)[C@H](O)[C@H]1O)NCCCO (stereo partly drawn) [1-[2-(3-Hydroxypropylamio)Propyl]-C-β-D-Xylopyranose] | 110 | 11656 | 109 | 11585 | 140 | 14832 | stimulate the incorporation of radioactive glucosamine |  |
| O=C[C@H](O)[C@@H](O)[C@H](O)CO [D-Xylose, reference compound] | 102 | 6586 |  |  |  |  |  | % (relative to untreated control) [5]: 86%; VALUE (radioactive glucosamine incorporated) [5]: 4063 cpm |
| CC(O)C[C@@H]1OC[C@@H](O)[C@H](O)[C@H]1O (stereo partly drawn) [C-β-D-Xylopyranoside-2-hydroxypropane, C-β-D-xylopyranoside-2-hydroxypropane] |  |  | 139 | 11634 | 169 | 14209 |  | % (relative to untreated control) [6]: 218%; VALUE (radioactive glucosamine incorporated) [6]: 18271 cpm; effect on incorporation of radioactive glucosamine (concentrations of 0.1, 0.3 and 1 mM): stimulates the incorporation of radioactive glucosamine |
| TGFβ: positive control (TGFβ at 10 ng/ml) known to stimulate GAG synthesis |  |  |  |  |  |  |  | % (relative to untreated control) [7]: 348% and 454%; VALUE (radioactive glucosamine incorporated) [7]: 27124 cpm and 34865 cpm |
| O=C(C[C@@H]1OC[C@@H](O)[C@H](O)[C@H]1O)c1ccccc1 [1-Phenyl-2-(C-β-D-Xylopyranoside)Ethan-1-One] | 120 | 10113 | 102 | 8545 | 95 | 7941 | stimulate the incorporation of radioactive glucosamine |  |
| CC(=O)C[C@@H]1OC[C@@H](O)[C@H](O)[C@H]1O [C-β-D-Xylopyranoside-n-propan-2-one, C-β-D-xylopyranoside-n-propan-2-one] |  |  |  |  |  |  |  | % (relative to untreated control) [8]: 141%; VALUE (radioactive glucosamine incorporated) [8]: 8564 cpm; % (relative to untreated control) [9]: 131%; VALUE (radioactive glucosamine incorporated) [9]: 11014 cpm; % (relative to untreated control) [10]: 161%; VALUE (radioactive glucosamine incorporated) [10]: 12507 cpm and 9811 cpm; effect on incorporation of radioactive glucosamine (concentrations of 0.4, 2 and 10 mM): stimulates the incorporation of radioactive glucosamine |
